ChEMBL document CHEMBL1201862, “PubChem BioAssay data set” (2004)
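Interpolation was linear, between the two tested concentrations surrounding the appropriate level; five concentrations were tested over 48 hours in 96-well plates. GI50 is the concentration that inhibits growth by half.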 Active and inactive are the calls of the source. Rule as the data show it: active = GI50 up to about 1.1 µM and inactive = higher.

Columns and labels:
Test in all cases: NCI tumour cell line growth inhibition, 48 h
COLO 205 = system: COLO 205
HCC 2998 = system: HCC 2998
HCT-15 = system: HCT-15
HL-60 = system: HL-60
HOP-62 = system: HOP-62
LOX IMVI = system: LOX IMVI
MCF7 = system: MCF7
NCI-H460 = system: NCI-H460
NCI/ADR-RES = system: NCI/ADR-RES
OVCAR-4 = system: OVCAR-4
OVCAR-8 = system: OVCAR-8
SF-295 = system: SF-295
SF-539 = system: SF-539
SK-MEL-28 = system: SK-MEL-28
SN12C = system: SN12C
SNB-19 = system: SNB-19
SW-620 = system: SW-620
TK-10 = system: TK-10
UACC-257 = system: UACC-257

Compound	GI50 (COLO 205)	GI50 (HCC 2998)	GI50 (HCT-15)	GI50 (HL-60)	GI50 (HOP-62)	GI50 (LOX IMVI)	GI50 (MCF7)	GI50 (NCI-H460)	GI50 (NCI/ADR-RES)	GI50 (OVCAR-4)	GI50 (OVCAR-8)	GI50 (SF-295)	GI50 (SF-539)	GI50 (SK-MEL-28)	GI50 (SN12C)	GI50 (SNB-19)	GI50 (SW-620)	GI50 (TK-10)	GI50 (UACC-257)
CC[N+](CC)(CCNCC(N)=O)CC(N)=O	> 10 µM (inactive)	> 10 µM (inactive)	> 10 µM	> 10 µM (inactive)	> 10 µM (inactive)	> 10 µM (inactive)	> 10 µM (inactive)	> 10 µM (inactive)	> 10 µM (inactive)	> 10 µM (inactive)	> 10 µM (inactive)	> 10 µM (inactive)	> 10 µM (inactive)	> 10 µM (inactive)	> 10 µM (inactive)	> 10 µM (inactive)	> 10 µM (inactive)	> 10 µM (inactive)	> 10 µM (inactive)
O=[N+]([O-])c1ccccc1S(=O)(=O)c1cc(Cl)cc2c1NCCC2	33.6 µM (inactive)	20.1 µM (inactive)	65.6 µM	31.3 µM (inactive)	> 100 µM (inactive)	43.9 µM (inactive)	39.4 µM (inactive)	77.3 µM (inactive)	> 100 µM (inactive)	> 100 µM (inactive)	> 100 µM (inactive)	52.2 µM (inactive)	> 100 µM (inactive)	62.8 µM (inactive)	90.6 µM (inactive)	65 µM (inactive)	> 100 µM (inactive)	> 100 µM (inactive)	35.6 µM (inactive)
Cc1cnc2c(C)ccc([N+](=O)[O-])c2c1NCCCN(C)C	> 100 µM (inactive)	> 100 µM (inactive)	> 100 µM	> 100 µM (inactive)	> 100 µM (inactive)	> 100 µM (inactive)	–	> 100 µM (inactive)	–	> 100 µM (inactive)	> 100 µM (inactive)	> 100 µM (inactive)	> 100 µM (inactive)	> 100 µM (inactive)	> 100 µM (inactive)	> 100 µM (inactive)	> 100 µM (inactive)	> 100 µM (inactive)	> 100 µM (inactive)
O=C1c2c(O)cccc2C(C(=O)CCCCCC(=O)C2c3cccc(O)c3C(=O)c3c(O)cccc32)c2cccc(O)c21	1.98 µM (inactive)	2.27 µM (inactive)	1 µM	1.15 µM (inactive)	2.88 µM (inactive)	0.906 µM (active)	–	0.586 µM (active)	–	1.5 µM (inactive)	1.53 µM (inactive)	1.14 µM (inactive)	0.537 µM (active)	0.804 µM (active)	1.04 µM (active)	0.973 µM (active)	1.09 µM (active)	3.82 µM (inactive)	0.755 µM (active)
COc1ccc(N2CC(=O)N(C(=O)COc3ccc(OCC(=O)N4C(=O)CN(c5ccc(OC)cc5)C4=S)cc3)C2=S)cc1	> 100 µM (inactive)	> 100 µM (inactive)	> 100 µM	–	–	–	48.6 µM (inactive)	59.2 µM (inactive)	> 100 µM (inactive)	> 100 µM (inactive)	–	> 100 µM (inactive)	–	> 100 µM (inactive)	> 100 µM (inactive)	> 100 µM (inactive)	> 100 µM (inactive)	> 100 µM (inactive)	48.3 µM (inactive)
CC(=O)NC1=C(NCCN(C)C)C(=O)c2ccccc2C1=O	9.95 µM (inactive)	14.9 µM (inactive)	9.51 µM	9.79 µM (inactive)	14.5 µM (inactive)	12.6 µM (inactive)	–	12.8 µM (inactive)	–	8.93 µM (inactive)	11.3 µM (inactive)	15.2 µM (inactive)	11.7 µM (inactive)	> 50 µM (inactive)	10.4 µM (inactive)	17.6 µM (inactive)	16 µM (inactive)	27.8 µM (inactive)	9.25 µM (inactive)
